According to patent publication US7473790B2 (Pfizer Inc., priority 2003, dated 2009):

molecular target: T1, HCV polymerase (Hepatitis C virus genotype 1b, UniProt P26663); assay: HCV polymerase primer/template-directed transcription assay (32P-GTP incorporation, filter binding); type: biochemical; conditions: @ 20 uM compound; given where IC50 was impractical to calculate; read-out: percent inhibition
T1 construct: 2.5 pmoles (0.15 μg) HCV polymerase protein in a final volume of 75 μL
Outline: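 Recombinant genotype 1b polymerase (30 nM) extended biotin-dG12 primer on poly(rC)300 template with 1 μM GTP plus α-32P-GTP, pH 7.2, 10 mM MgCl2, 30 min at 30° C, 1% DMSO final. Products captured on DE filters and counted. IC50 fitted from triplicate cpm, with a tight-binding correction applied below 200 nM.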

T1 sequence (P26663 2420-3010): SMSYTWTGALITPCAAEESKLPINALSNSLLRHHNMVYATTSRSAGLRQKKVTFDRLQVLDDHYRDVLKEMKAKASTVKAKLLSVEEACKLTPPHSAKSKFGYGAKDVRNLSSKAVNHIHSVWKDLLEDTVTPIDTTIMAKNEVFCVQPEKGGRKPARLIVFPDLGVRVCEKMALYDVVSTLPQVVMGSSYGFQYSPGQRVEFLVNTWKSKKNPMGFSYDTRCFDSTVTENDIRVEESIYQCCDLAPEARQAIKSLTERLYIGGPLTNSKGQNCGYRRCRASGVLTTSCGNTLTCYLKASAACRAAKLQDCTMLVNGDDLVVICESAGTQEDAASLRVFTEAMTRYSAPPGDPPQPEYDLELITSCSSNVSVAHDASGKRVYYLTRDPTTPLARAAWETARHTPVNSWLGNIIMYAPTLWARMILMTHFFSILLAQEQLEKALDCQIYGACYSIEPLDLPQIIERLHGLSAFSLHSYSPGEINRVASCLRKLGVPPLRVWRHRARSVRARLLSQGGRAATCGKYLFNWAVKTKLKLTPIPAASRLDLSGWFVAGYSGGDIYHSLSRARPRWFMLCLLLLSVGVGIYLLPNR

| SMILES | inhibition at 20 µM [%] |
| --- | --- |
| CCC1(CCc2ccc(OC)cc2)CC(O)=C(Sc2nc3cc(Cl)ccc3n2C(C)C)C(=O)O1 (stereo not drawn) [C(15), 3-(5-Chloro-1-isopropyl-1H-benzoimidazol-2-ylsulfanyl)-6-ethyl-4-hydroxy-6-[2-(4-methoxy-phenyl)-ethyl]-5,6-dihydro-pyran-2-one] | 22 |
| CCC1(CCc2ccc(OC)cc2)CC(O)=C(Sc2nc3nc(C)cc(C)n3n2)C(=O)O1 (stereo not drawn) [C(16), 3-(5,7-Dimethyl-[1,2,4]triazolo[1,5-a]pyrimidin-2-ylsulfanyl)-6-ethyl-4-hydroxy-6-[2-(4-methoxy-phenyl)-ethyl]-5,6-dihydro-pyran-2-one] | 8 |

same assay, conditions: @ 50 uM compound; given where IC50 was impractical to calculate; read-out: percent inhibition

| SMILES | inhibition at 50 µM [%] |
| --- | --- |
| Cc1cc(C)n2nc(SC3=C(O)CC(C)(C4CCCC4)OC3=O)nc2n1 (stereo not drawn) [C(17), 6-Cyclopentyl-3-(5,7-dimethyl-[1,2,4]triazolo[1,5-a]pyrimidin-2-ylsulfanyl)-4-hydroxy-6-methyl-5,6-dihydro-pyran-2-one] | 2 |
| CCC1(CC)CC(O)=C(Sc2nc3nc(C)cc(C)n3n2)C(=O)O1 [C(18), 3-(5,7-Dimethyl-[1,2,4]triazolo[1,5-a]pyrimidin-2-ylsulfanyl)-6,6-diethyl-4-hydroxy-5,6-dihydro-pyran-2-one] | 2 |
| CCC1(CC)CC(O)=C(Sc2nc3cc(Cl)ccc3n2C(C)C)C(=O)O1 [C(19), 3-(5-Chloro-1-isopropyl-1H-benzoimidazol-2-ylsulfanyl)-6,6-diethyl-4-hydroxy-5,6-dihydro-pyran-2-one] | 22 |
| CCC1(C)CC(O)=C(Sc2nc3cc(Cl)ccc3n2C(C)C)C(=O)O1 (stereo not drawn) [C(20), 3-(5-Chloro-1-isopropyl-1H-benzoimidazol-2-ylsulfanyl)-6-ethyl-4-hydroxy-6-methyl-5,6-dihydro-pyran-2-one] | 11 |
| CCC1(C)CC(O)=C(Sc2nc3nc(C)cc(C)n3n2)C(=O)O1 (stereo not drawn) [C(21), 3-(5,7-Dimethyl-[1,2,4]triazolo[1,5-a]pyrimidin-2-ylsulfanyl)-6-ethyl-4-hydroxy-6-methyl-5,6-dihydro-pyran-2-one] | 12 |

same assay, conditions: recombinant HCV polymerase; 30 minutes at 30° C.; concentration giving 50% inhibition of polymerase-directed transcription; read-out: IC50

| SMILES | IC50 [nM] |
| --- | --- |
| O=C1OC(CCC2=CCCCC2)(C2CCCC2)CC(O)=C1Sc1nnc(-c2ccncc2)[nH]1 (stereo not drawn) [C(04), 6-(2-Cyclohex-1-enyl-ethyl)-6-cyclopentyl-4-hydroxy-3-(5-pyridin-4-yl-4H-[1,2,4]triazol-3-ylsulfanyl)-5,6-dihydro-pyran-2-one] | 1800 |
| COc1ccc(CCC2(C3CCCC3)CC(O)=C(Sc3nnc(O)n3C(C)C)C(=O)O2)cc1Cl (stereo not drawn) [C(06), 6-[2-(3-Chloro-4-methoxy-phenyl)-ethyl]-6-cyclopentyl-4-hydroxy-3-(5-hydroxy-4-isopropyl-4H-[1,2,4]triazol-3-ylsulfanyl)-5,6-dihydro-pyran-2-one] | 250 |
| Cc1cc(C)n2nc(SC3=C(O)CC(CCc4ccc(OC(C)C)c(F)c4)(C4CCCC4)OC3=O)nc2n1 (stereo not drawn) [C(07), 6-Cyclopentyl-3-(5,7-dimethyl-[1,2,4]triazolo[1,5-a]pyrimidin-2-ylsulfanyl)-6-[2-(3-fluoro-4-isopropoxy-phenyl)-ethyl]-4-hydroxy-5,6-dihydro-pyran-2-one] | 19 |
| CC(C)Oc1ccc(CCC2(C3CCCC3)CC(O)=C(Sc3ccc(O)cc3)C(=O)O2)cc1F (stereo not drawn) [C(08), 6-Cyclopentyl-6-[2-(3-fluoro-4-isopropoxy-phenyl)-ethyl]-4-hydroxy-3-(4-hydroxy-phenylsulfanyl)-5,6-dihydro-pyran-2-one] | 310 |
| Cc1nnc(SC2=C(O)CC(CCc3ccc(OC(C)C)c(F)c3)(C3CCCC3)OC2=O)s1 (stereo not drawn) [C(09), 6-Cyclopentyl-6-[2-(3-fluoro-4-isopropoxy-phenyl)-ethyl]-4-hydroxy-3-(5-methyl-[1,3,4]thiadiazol-2-ylsulfanyl)-5,6-dihydro-pyran-2-one] | 326 |
| COC(=O)c1nnc(SC2=C(O)CC(CCc3ccc(OC(C)C)c(F)c3)(C3CCCC3)OC2=O)n1C (stereo not drawn) [C(10), 5-{6-Cyclopentyl-6-[2-(3-fluoro-4-isopropoxy-phenyl)-ethyl]-4-hydroxy-2-oxo-5,6-dihydro-2H-pyran-3-ylsulfanyl}-4-methyl-4H-[1,2,4]triazole-3-carboxylic acid methyl ester] | 16 |
| CC(C)Oc1ccc(CCC2(C3CCCC3)CC(O)=C(Sc3ncccn3)C(=O)O2)cc1F (stereo not drawn) [C(11), 6-Cyclopentyl-6-[2-(3-fluoro-4-isopropoxy-phenyl)-ethyl]-4-hydroxy-3-(pyrimidin-2-ylsulfanyl)-5,6-dihydro-pyran-2-one] | 190 |
| CC(C)Oc1ccc(CCC2(C3CCCC3)CC(O)=C(Sc3nnc(O)n3C(C)C)C(=O)O2)cc1F (stereo not drawn) [C(12), 6-Cyclopentyl-6-[2-(3-fluoro-4-isopropoxy-phenyl)-ethyl]-4-hydroxy-3-(5-hydroxy-4-isopropyl-4H-[1,2,4]triazol-3-ylsulfanyl)-5,6-dihydro-pyran-2-one] | 82 |
| Cc1cc(C)n2nc(SC3=C(O)CC(CCc4ccc(-c5c(C)noc5C)cc4)(C4CCCC4)OC3=O)nc2n1 (stereo not drawn) [C(13), 6-Cyclopentyl-6-{2-[4-(3,5-dimethyl-isoxazol-4-yl)-phenyl]-ethyl}-3-(5,7-dimethyl-[1,2,4]triazolo[1,5-a]pyrimidin-2-ylsulfanyl)-4-hydroxy-5,6-dihydro-pyran-2-one] | 16 |
| Cc1noc(C)c1-c1ccc(CCC2(C3CCCC3)CC(O)=C(Sc3nc4cc(Cl)ccc4n3C)C(=O)O2)cc1 (stereo not drawn) [C(14), 3-(5-Chloro-1-methyl-1H-benzoimidazol-2-ylsulfanyl)-6-cyclopentyl-6-{2-[4-(3,5-dimethyl-isoxazol-4-yl)-phenyl]-ethyl}-4-hydroxy-5,6-dihydro-pyran-2-one] | 14 |
| COc1ccc(CCC2(C3CCCC3)CC(O)=C(Sc3nnc(-c4ccccc4)[nH]3)C(=O)O2)cc1Cl (stereo not drawn) [C(22), 6-[2-(3-Chloro-4-methoxy-phenyl)-ethyl]-6-cyclopentyl-3-(5-phenyl-4H-[1,2,4]triazol-3-ylsulfanyl)-dihydro-pyran-2,4-dione] | 68 |
| COc1ccc(CCC2(C3CCCC3)CC(O)=C(Sc3nnc(-c4ccc(O)cc4)[nH]3)C(=O)O2)cc1Cl (stereo not drawn) [C(23), 6-[2-(3-Chloro-4-methoxy-phenyl)-ethyl]-6-cyclopentyl-3-[5-(4-hydroxy-phenyl)-4H-[1,2,4]triazol-3-ylsulfanyl]-dihydro-pyran-2,4-dione] | 50 |
| CC(C)Oc1ccc(CCC2(C3CCCC3)CC(O)=C(Sc3nnc(-c4ccccc4)[nH]3)C(=O)O2)cc1F (stereo not drawn) [C(24), 6-Cyclopentyl-6-[2-(3-fluoro-4-isopropoxy-phenyl)-ethyl]-4-hydroxy-3-(5-phenyl-4H-[1,2,4]triazol-3-ylsulfanyl)-5,6-dihydro-pyran-2-one] | 51 |
| CC(C)Oc1ccc(CCC2(C3CCCC3)CC(O)=C(Sc3nc4cc(Cl)ccc4n3C(C)C)C(=O)O2)cc1Cl (stereo not drawn) [C(25), 6-[2-(3-Chloro-4-isopropoxy-phenyl)-ethyl]-3-(5-chloro-1-isopropyl-1H-benzoimidazol-2-ylsulfanyl)-6-cyclopentyl-4-hydroxy-5,6-dihydro-pyran-2-one] | 20 |
| CC(C)Oc1ccc(CCC2(C3CCCC3)CC(O)=C(Sc3nc4cc(Cl)ccc4[nH]3)C(=O)O2)cc1Cl (stereo not drawn) [C(26), 3-(5-Chloro-1H-benzoimidazol-2-ylsulfanyl)-6-[2-(3-chloro-4-isopropoxy-phenyl)-ethyl]-6-cyclopentyl-4-hydroxy-5,6-dihydro-pyran-2-one] | 130 |
| O=C1OC(CCC2CCCCC2)(C2CCCC2)CC(O)=C1Sc1nnc(-c2ccncc2)[nH]1 (stereo not drawn) [C(27), 6-(2-Cyclohexyl-ethyl)-6-cyclopentyl-4-hydroxy-3-(5-pyridin-4-yl-4H-[1,2,4]triazol-3-ylsulfanyl)-5,6-dihydro-pyran-2-one] | 2500 |
| O=C1OC(CCC2CCCC2)(C2CCCC2)CC(O)=C1Sc1nnc(-c2ccncc2)[nH]1 (stereo not drawn) [C(28), 6-Cyclopentyl-6-(2-cyclopentyl-ethyl)-4-hydroxy-3-(5-pyridin-4-yl-4H-[1,2,4]triazol-3-ylsulfanyl)-5,6-dihydro-pyran-2-one] | 8000 |
| CC(C)n1c(SC2=C(O)CC(CCC3CCCC3)(C3CCCC3)OC2=O)nc2cc(Cl)ccc21 (stereo not drawn) [C(29), 3-(5-Chloro-1-isopropyl-1H-benzoimidazol-2-ylsulfanyl)-6-cyclopentyl-6-(2-cyclopentyl-ethyl)-4-hydroxy-5,6-dihydro-pyran-2-one] | 9300 |
| O=C1OC(CCCC2CCCCC2)(C2CCCC2)CC(O)=C1Sc1nnc(-c2ccncc2)[nH]1 (stereo not drawn) [C(30), 6-(3-Cyclohexyl-propyl)-6-cyclopentyl-4-hydroxy-3-(5-pyridin-4-yl-4H-[1,2,4]triazol-3-ylsulfanyl)-5,6-dihydro-pyran-2-one] | 550 |
| CC(C)n1c(SC2=C(O)CC(CCCC3CCCCC3)(C3CCCC3)OC2=O)nc2cc(Cl)ccc21 (stereo not drawn) [C(31), 3-(5-Chloro-1-isopropyl-1H-benzoimidazol-2-ylsulfanyl)-6-(3-cyclohexyl-propyl)-6-cyclopentyl-4-hydroxy-5,6-dihydro-pyran-2-one] | 510 |
| O=C1OC(CCCCC2CCCCC2)(C2CCCC2)CC(O)=C1Sc1nnc(-c2ccncc2)[nH]1 (stereo not drawn) [C(32), 6-(4-Cyclohexyl-butyl)-6-cyclopentyl-4-hydroxy-3-(5-pyridin-4-yl-4H-[1,2,4]triazol-3-ylsulfanyl)-5,6-dihydro-pyran-2-one] | 270 |
| COc1ccc(CCC2(C3CCCC3)CC(O)=C(Sc3nncn3C(C)(C)C)C(=O)O2)cc1Cl (stereo not drawn) [C(34), 3-[(4-tert-butyl-4H-1,2,4-triazol-3-yl)thio]-6-[2-(3-chloro-4-methoxyphenyl)ethyl]-6-cyclopentyl-4-hydroxy-5,6-dihydro-2H-pyran-2-one] | 53 |
| CCn1cnnc1SC1=C(O)CC(CCc2ccc(OC)c(Cl)c2)(C2CCCC2)OC1=O (stereo not drawn) [C(35), 6-[2-(3-chloro-4-methoxyphenyl)ethyl]-6-cyclopentyl-3-[(4-ethyl-4H-1,2,4-triazol-3-yl)thio]-4-hydroxy-5,6-dihydro-2H-pyran-2-one] | 70 |
